Results from the supplement of paper PMC4858399.
Structures can show the parent of a compound that is named as a salt.

Assays:
Conditions in all cases: exposure time 48 h
[1] = tested on: Caenorhabditis elegans N2; assay: AC50 for larval growth inhibition (Hill fit); higher = less potent
Method in brief: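 Synchronised C. elegans N2 L1 larvae (50 per well, 96-well plates) were grown for 48 h at 20°C in K-medium with killed OP50, 1% DMSO and 0.5–200 µM chemical. The COPAS Biosort measured each worm's size as extinction, which was log-transformed and averaged per well. AC50 came from a constrained Hill fit by weighted genetic-algorithm regression on wells with at least 10 worms. Out-of-range values are censored.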

[2] = tested on: Caenorhabditis elegans N2; assay: mean nematode size ln(EXT) after 48 h, plate-adjusted (DMSO control set to 6) (ln(EXT), control-adjusted); higher = larger nematodes / less growth inhibition
Method in brief: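 Synchronised C. elegans N2 L1 larvae (50 per well, 4–6 wells per treatment) were grown for 48 h at 20°C in K-medium with killed OP50, 1% DMSO and 0.5–200 µM chemical. The Biosort measured each worm's extinction, and debris was removed by a growth model. Values were natural-logged and averaged per well. Mean size was then plate-adjusted by subtracting the vehicle control mean and adding 6.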

[3] = tested on: Caenorhabditis elegans N2; assay: lowest effective concentration for larval growth inhibition (size below effect threshold); higher = less potent
Method in brief: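 In 96-well plates, 50 C. elegans N2 L1 larvae per well were cultured at 20°C for 48 h in K-medium with killed bacteria and 1% DMSO, plus the chemical at 0.5, 1, 5, 10, 50, 100 or 200 µM. Size was measured as per-worm extinction on a Biosort and log-transformed into well means. Taking the first dose where the plate-adjusted mean size sits under 5.665 and stays there at higher doses gives the lowest effective concentration.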

Row | SMILES | AC50 for larval growth inhibition [1] [µM] | mean nematode size ln(EXT) (ln) ([2]; 0.5 µM) | mean nematode size ln(EXT) (ln) ([2]; 1 µM) | mean nematode size ln(EXT) (ln) ([2]; 5 µM) | mean nematode size ln(EXT) (ln) ([2]; 10 µM) | mean nematode size ln(EXT) (ln) ([2]; 50 µM) | mean nematode size ln(EXT) (ln) ([2]; 100 µM) | mean nematode size ln(EXT) (ln) ([2]; 200 µM) | lowest effective concentration [3] [µM]
1 | CS(=O)(=O)NC(=O)c1cc(Oc2ccc(C(F)(F)F)cc2Cl)ccc1[N+](=O)[O-] [Fomesafen] | 180 | 5.93 | 5.95 | 5.95 | 5.95 | 5.89 | 6 | 5.52 | 200
2 | O=C(Nc1ccccc1)Nc1ccnc(Cl)c1 [Forchlorfenuron] | > 200 | 5.77 | 5.96 | 5.81 | 5.82 | 5.44 | 5.54 | 4.5 | 50
3 | CNC(=O)Oc1cccc(/N=C/N(C)C)c1 [Formetanate hydrochloride] | 62.8 | 5.85 | 6.01 | 6 | 5.93 | 5.73 | 5.59 | 5.47 | 100
4 | CCOP(=O)(SC(C)CC)N1CCSC1=O (stereo not given) [Fosthiazate] | 93.1 | 5.92 | 5.99 | 6.15 | 6.12 | 5.94 | 5.79 | 5.64 | 200
5 | O=c1c(-c2ccc(O)cc2)coc2cc(O)cc(O)c12 [Genistein] | > 200 | 5.88 | 5.89 | 5.92 | 5.85 | 5.89 | 5.89 | 5.53 | 200
6 | CC(=O)OC/C=C(\C)CCC=C(C)C [Geranyl acetate] | > 200 | 5.79 | 5.76 | 5.73 | 5.81 | 5.7 | 5.74 | 5.61 | 200
7 | OCC(O)CO [Glycerol] | > 200 | 5.83 | 5.87 | 5.84 | 5.75 | 5.87 | 5.87 | 5.66 | 200
8 | O=C(CCCN1CCC(O)(c2ccc(Cl)cc2)CC1)c1ccc(F)cc1 [Haloperidol] | 43.3 | 5.95 | 5.85 | 5.93 | 5.66 | 4.99 | 4.71 | 4.44 | 10
9 | ClC1=C(Cl)C2(Cl)C3C(Cl)C=CC3C1(Cl)C2(Cl)Cl (stereo not given) [Heptachlor] | 6.11 | 5.7 | 5.98 | 5.24 | 4.13 | 4.03 | 3.97 | 3.44 | 5
10 | O=S(=O)(O)C(F)(F)C(F)(F)C(F)(F)C(F)(F)C(F)(F)C(F)(F)C(F)(F)C(F)(F)F [Heptadecafluorooctanesulfonic acid potassium salt] | 11.4 | 5.46 | 5.57 | 5.12 | 4.63 | 3.8 | 3.62 | 3.47 | ≤ 0.5
11 | CCCCCCC(=O)O [Heptanoic acid] | > 200 | 5.88 | 5.97 | 5.87 | 6.04 | 5.85 | 5.87 | 5.43 | 200
12 | CCCCC(O)(Cn1cncn1)c1ccc(Cl)cc1Cl (stereo not given) [Hexaconazole] | 84.2 | 5.86 | 5.78 | 5.71 | 5.99 | 5.81 | 4.65 | 4.09 | 100
13 | O=C(NC(=O)c1c(F)cccc1F)Nc1cc(Cl)c(OC(F)(F)C(F)F)c(Cl)c1 [Hexaflumuron] | > 200 | 5.94 | 5.96 | 5.8 | 5.64 | 5.5 | 5.44 | 4.83 | 10
14 | CN(C)c1ccc(C(=C2C=CC(=[N+](C)C)C=C2)c2ccc(N(C)C)cc2)cc1 [Hexamethyl-p-rosaniline chloride] | < 0.5 | 4.79 | 4.53 | 4.01 | 3.85 | 3.66 | 4.08 | 4.02 | ≤ 0.5
15 | CN(C)c1nc(=O)n(C2CCCCC2)c(=O)n1C [Hexazinone] | 109 | 5.85 | 5.89 | 5.89 | 5.92 | 6 | 5.92 | 5.62 | 200
16 | C[C@@H]1[C@@H](c2ccc(Cl)cc2)SC(=O)N1C(=O)NC1CCCCC1 [Hexythiazox] | 122 | 6.07 | 5.94 | 5.91 | 5.99 | 5.68 | 5.34 | 3.24 | 100
17 | CC(=O)S[C@H](C(=O)N[C@H]1Cc2ccccc2[C@H]2CCC[C@@H](C(=O)O)N2C1=O)C(C)C [Ilepatril] | > 200 | 5.89 | 5.83 | 5.76 | 5.88 | 5.84 | 5.8 | 5.58 | 200
18 | C=CCOC(Cn1ccnc1)c1ccc(Cl)cc1Cl (stereo not given) [Imazalil] | > 200 | 5.91 | 6.17 | 6.07 | 5.99 | 5.83 | 5.74 | 4.6 | 200
19 | Cc1cnc(C2=NC(=O)C(C)(C(C)C)N2)c(C(=O)O)c1 (stereo not given) [Imazapic] | 79.6 | 5.98 | 6.06 | 6.04 | 6.23 | 5.45 | 4.31 | 3.54 | 50
20 | O=[N+]([O-])/N=C1\NCCN1Cc1ccc(Cl)nc1 [Imidacloprid] | 111 | 5.78 | 6.02 | 6.07 | 6.08 | 5.96 | 5.54 | 4.86 | 100
